# Columns and labels:
# Assay type in all cases: in vivo
# [1] = test system: upland rice (Oryza sp., var. Tebonnet, RICE); experiment: Pre-emerge test, crop safety; settings: rating scale 0-100, 14 days after application
# Procedure, shortened: (§1)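 Plants grown in 10 cm pots of sandy loam mix received acetone-dissolved compounds through a moving flat-fan nozzle. Doses ranged from 15 to 1000 g ai/ha. Pre-emerge pots were seeded one day earlier, post-emerge pots 8–21 days earlier. Fourteen days on, each pot was graded 0–100 for damage.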
# [2] = test system: field corn (Zea mays L., var. Dekalb 535, CORN); experiment: Pre-emerge test, crop safety; settings: rating scale 0-100, 14 days after application
# Procedure, shortened: as §1
# [3] = test system: upland rice (Oryza sp., var. Tebonnet, RICE); experiment: Post-emerge test, crop safety; settings: rating scale 0-100 (0 no damage, 100 complete death), 14 days after application
# Procedure, shortened: (§2)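 Rating: 0–100 visual injury, 14 DAA. Application: acetone, 187 l/ha, 15–1000 g ai/ha, flat-fan track sprayer with nozzle 40–45 cm above soil or canopy. Post-emerge runs used 0.25% v/v surfactant on 2–3 leaf plants.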
# [4] = test system: field corn (Zea mays L., var. Dekalb 535, CORN); experiment: Post-emerge test, crop safety; settings: rating scale 0-100 (0 no damage, 100 complete death), 14 days after application
# Procedure, shortened: as §2
# [5] = test system: ivyleaf morningglory (Ipomoea hederacea, IPOHE); experiment: Post-emerge test, greenhouse herbicide activity screening; settings: rating scale 0-100 (0 no damage, 100 complete death), 14 days after application
# Procedure, shortened: (§3)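 Compounds in acetone were track-sprayed at 187 l/ha, 15–1000 g ai/ha, onto sandy loam pots. Pre-emerge seeds were sown one day before spraying, with surface watering afterwards. Post-emerge plants were at the 2–3 leaf stage and sprayed with 0.25% v/v non-ionic surfactant. Injury was rated 0–100 at 14 days.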
# [6] = test system: barnyardgrass (Echinochloa crus-galli, ECHCG); experiment: as above; settings: rating scale 0-100 (0 no damage, 100 complete death), 14 days after application
# Procedure, shortened: as §3
# [7] = test system: large crabgrass (Digitaria sanguinalis, DIGSA); experiment: as above; settings: rating scale 0-100 (0 no damage, 100 complete death), 14 days after application
# Procedure, shortened: as §3
# [8] = test system: johnsongrass (Sorghum halepense, SORHA); experiment: as above; settings: rating scale 0-100 (0 no damage, 100 complete death), 14 days after application
# Procedure, shortened: as §3
# [9] = test system: lambsquarters (Chenopodium album, CHEAL); experiment: as above; settings: rating scale 0-100 (0 no damage, 100 complete death), 14 days after application
# Procedure, shortened: as §3
# [10] = test system: green foxtail (Setaria viridis, SETVI); experiment: as above; settings: rating scale 0-100 (0 no damage, 100 complete death), 14 days after application
# Procedure, shortened: as §3
# [11] = test system: sicklepod (Cassia obtusifolia, CASOB); experiment: as above; settings: rating scale 0-100 (0 no damage, 100 complete death), 14 days after application
# Procedure, shortened: as §3
# [12] = test system: velvetleaf (Abutilon theophrasti, ABUTH); experiment: as above; settings: rating scale 0-100 (0 no damage, 100 complete death), 14 days after application
# Procedure, shortened: as §3
# [13] = test system: common ragweed (Ambrosia artemisizfolia L., AMBEL); experiment: as above; settings: rating scale 0-100 (0 no damage, 100 complete death), 14 days after application
# Procedure, shortened: as §3
# [14] = test system: redroot pigweed (Amaranthus retroflexus, AMARE); experiment: as above; settings: rating scale 0-100 (0 no damage, 100 complete death), 14 days after application
# Procedure, shortened: as §3
# [15] = test system: ivyleaf morningglory (Ipomoea hederacea, IPOHE); experiment: Pre-emerge test, greenhouse herbicide activity screening; settings: rating scale 0-100, 14 days after application
# Procedure, shortened: (§4)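 Compounds in acetone were track-sprayed at 15–1000 g ai/ha: pre-emergence onto soil sown the previous day, then top-watered to incorporate and later bottom-watered; post-emergence onto 2–3 leaf plants with 0.25% v/v surfactant, bottom-watered only. Ratings on a 0–100 phytotoxicity scale were taken at day 14.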
# [16] = test system: barnyardgrass (Echinochloa crus-galli, ECHCG); experiment: as above; settings: rating scale 0-100, 14 days after application
# Procedure, shortened: as §4
# [17] = test system: large crabgrass (Digitaria sanguinalis, DIGSA); experiment: as above; settings: rating scale 0-100, 14 days after application
# Procedure, shortened: as §4
# [18] = test system: johnsongrass (Sorghum halepense, SORHA); experiment: as above; settings: rating scale 0-100, 14 days after application
# Procedure, shortened: as §4
# [19] = test system: lambsquarters (Chenopodium album, CHEAL); experiment: as above; settings: rating scale 0-100, 14 days after application
# Procedure, shortened: as §4
# [20] = test system: green foxtail (Setaria viridis, SETVI); experiment: as above; settings: rating scale 0-100, 14 days after application
# Procedure, shortened: as §4
# [21] = test system: sicklepod (Cassia obtusifolia, CASOB); experiment: as above; settings: rating scale 0-100, 14 days after application
# Procedure, shortened: as §4
# [22] = test system: velvetleaf (Abutilon theophrasti, ABUTH); experiment: as above; settings: rating scale 0-100, 14 days after application
# Procedure, shortened: as §4
# [23] = test system: redroot pigweed (Amaranthus retroflexus, AMARE); experiment: as above; settings: rating scale 0-100, 14 days after application
# Procedure, shortened: as §2
structure (smiles),measurement,setting,value
CCCCCOC(=O)C(C)(Cl)Cc1c(OC)c(Cl)cc(F)c1-n1c(=O)cc(C(F)(F)F)n(C)c1=O (stereo not shown) [14-37],"Pre-emerge phytotoxicity rating, crop damage RICE",[1]; 63 g ai/ha,0
same,"Pre-emerge phytotoxicity rating, crop damage RICE",[1]; 250 g ai/ha,80
same,"Pre-emerge phytotoxicity rating, crop damage CORN",[2]; 63 g ai/ha,0
same,"Pre-emerge phytotoxicity rating, crop damage CORN",[2]; 250 g ai/ha,0
same,Post-emerge phytotoxicity rating RICE (crop damage),[3]; Rate 63 g ai/ha,70
same,Post-emerge phytotoxicity rating RICE (crop damage),[3]; Rate 250 g ai/ha,100
same,Post-emerge phytotoxicity rating CORN (crop damage),[4]; Rate 63 g ai/ha,20
same,Post-emerge phytotoxicity rating CORN (crop damage),[4]; Rate 250 g ai/ha,95
same,"Post-emerge Herbicidal Activity, phytotoxicity rating IPOHE",[5]; Rate 63 g ai/ha,30
same,"Post-emerge Herbicidal Activity, phytotoxicity rating IPOHE",[5]; Rate 250 g ai/ha,100
same,"Post-emerge Herbicidal Activity, phytotoxicity rating ECHCG",[6]; Rate 63 g ai/ha,100
same,"Post-emerge Herbicidal Activity, phytotoxicity rating ECHCG",[6]; Rate 250 g ai/ha,100
same,"Post-emerge Herbicidal Activity, phytotoxicity rating DIGSA",[7]; Rate 63 g ai/ha,80
same,"Post-emerge Herbicidal Activity, phytotoxicity rating DIGSA",[7]; Rate 250 g ai/ha,100
same,"Post-emerge Herbicidal Activity, phytotoxicity rating SORHA",[8]; Rate 63 g ai/ha,0
same,"Post-emerge Herbicidal Activity, phytotoxicity rating SORHA",[8]; Rate 250 g ai/ha,30
same,"Post-emerge Herbicidal Activity, phytotoxicity rating CHEAL",[9]; Rate 63 g ai/ha,100
same,"Post-emerge Herbicidal Activity, phytotoxicity rating CHEAL",[9]; Rate 250 g ai/ha,100
same,"Post-emerge Herbicidal Activity, phytotoxicity rating SETVI",[10]; Rate 63 g ai/ha,90
same,"Post-emerge Herbicidal Activity, phytotoxicity rating SETVI",[10]; Rate 250 g ai/ha,100
same,"Post-emerge Herbicidal Activity, phytotoxicity rating CASOB",[11]; Rate 63 g ai/ha,20
same,"Post-emerge Herbicidal Activity, phytotoxicity rating CASOB",[11]; Rate 250 g ai/ha,50
same,"Post-emerge Herbicidal Activity, phytotoxicity rating ABUTH",[12]; Rate 63 g ai/ha,100
same,"Post-emerge Herbicidal Activity, phytotoxicity rating ABUTH",[12]; Rate 250 g ai/ha,100
same,"Post-emerge Herbicidal Activity, phytotoxicity rating AMBEL",[13]; Rate 63 g ai/ha,100
same,"Post-emerge Herbicidal Activity, phytotoxicity rating AMBEL",[13]; Rate 250 g ai/ha,100
same,"Post-emerge Herbicidal Activity, phytotoxicity rating AMARE",[14]; Rate 63 g ai/ha,100
same,"Post-emerge Herbicidal Activity, phytotoxicity rating AMARE",[14]; Rate 250 g ai/ha,100
same,"Pre-emerge herbicidal activity, phytotoxicity rating IPOHE",[15]; 63 g ai/ha,0
same,"Pre-emerge herbicidal activity, phytotoxicity rating IPOHE",[15]; 250 g ai/ha,0
same,"Pre-emerge herbicidal activity, phytotoxicity rating ECHCG",[16]; 63 g ai/ha,0
same,"Pre-emerge herbicidal activity, phytotoxicity rating ECHCG",[16]; 250 g ai/ha,99
same,"Pre-emerge herbicidal activity, phytotoxicity rating DIGSA",[17]; 63 g ai/ha,0
same,"Pre-emerge herbicidal activity, phytotoxicity rating DIGSA",[17]; 250 g ai/ha,100
same,"Pre-emerge herbicidal activity, phytotoxicity rating SORHA",[18]; 63 g ai/ha,0
same,"Pre-emerge herbicidal activity, phytotoxicity rating SORHA",[18]; 250 g ai/ha,0
same,"Pre-emerge herbicidal activity, phytotoxicity rating CHEAL",[19]; 63 g ai/ha,100
same,"Pre-emerge herbicidal activity, phytotoxicity rating CHEAL",[19]; 250 g ai/ha,100
same,"Pre-emerge herbicidal activity, phytotoxicity rating SETVI",[20]; 63 g ai/ha,0
same,"Pre-emerge herbicidal activity, phytotoxicity rating SETVI",[20]; 250 g ai/ha,95
same,"Pre-emerge herbicidal activity, phytotoxicity rating CASOB",[21]; 63 g ai/ha,0
same,"Pre-emerge herbicidal activity, phytotoxicity rating CASOB",[21]; 250 g ai/ha,0
same,"Pre-emerge herbicidal activity, phytotoxicity rating ABUTH",[22]; 63 g ai/ha,90
same,"Pre-emerge herbicidal activity, phytotoxicity rating ABUTH",[22]; 250 g ai/ha,100
same,"Pre-emerge herbicidal activity, phytotoxicity rating AMARE",[23]; 63 g ai/ha,100
same,"Pre-emerge herbicidal activity, phytotoxicity rating AMARE",[23]; 250 g ai/ha,100
